Reference: article PMC8936051 (Journal of medicinal chemistry, 2022)
Where two headings read alike, the source gives them in different places. Peptide text beside a SMILES is read from it. * marks the point of attachment. Cbz = O=C(OCc1ccccc1)*; CH2F = FC*

Tests used:
[1] = system: SARS-CoV-2 PP entry into HEK293-ACE2 cells; assay: microbe, parasite or virus in culture; format: cell-based
SARS-CoV-2 live virus = assay: microbe, parasite or virus in culture; format: cell-based
SARS-CoV-2 3CL protease [2] = molecular target: T1, SARS-CoV-2 3CL protease (Severe acute respiratory syndrome coronavirus 2, UniProt P0DTD1); format: biochemical; details: read-out: IC50, 3CL protease assay
SARS-CoV-2 3CL protease [3] = molecular target: T1, SARS-CoV-2 3CL protease; details: read-out: IC50, 3CL protease; finding of Sun et al.; cited from earlier work
[4] = Severe acute respiratory syndrome coronavirus 2, read-out: IC50, PP entry assay
[5] = Severe acute respiratory syndrome coronavirus 2, read-out: AC50 (potency), CPE assay
[6] = read-out: AC50 (potency), CPE assay

| SMILES | efficacy, PP entry assay [1] [%] | IC50 [1, 4] [µM] | AC50 (SARS-CoV-2 live virus; [6]) [µM] | also measured |
| --- | --- | --- | --- | --- |
| CCN(CC)Cc1cc(Nc2ccnc3cc(Cl)ccc23)ccc1O [NCGC00017063, Amodiaquine] | 103 | 19 | – | AC50 (SARS-CoV-2 live virus; [5]): 4.14 ± 1.41 µM |
| COc1ccc2cc1Oc1ccc(cc1)C[C@H]1c3c(cc4c(c3Oc3cc5c(cc3OC)CCN(C)[C@@H]5C2)OCO4)CCN1C [NCGC00161621, Cepharanthine] | 102 | 6.88 | – | AC50 (SARS-CoV-2 live virus; [5]): 1.41 ± 0.39 µM |
| CCN(CC)CCCCNc1nc2cc(Cl)c(Cl)cc2nc1-c1ccc(-c2cccs2)s1 [NCGC00263128, PD 0220245] | – | – | < 5 | – |
| O=C(NCc1ccccc1)[C@H](Cc1ccccc1)NC(=O)[C@H]1O[C@@H]1C(=O)NCCc1ccc(O)cc1 [NCGC00345807, CAA-0225] | 89 | – | 0.2 ± 0.07 | IC50 ([1]; read-out: IC50, PP entry assay): 0.6 µM |
| C=C(c1ccc(C(=O)O)c(F)c1)c1cc2c(cc1C)C(C)(C)CCC2(C)C [NCGC00371011, Fluorobexarotene] | – | – | – | IC50 (SARS-CoV-2 3CL protease [2]): 28.9 ± 2.35 µM |
| Nc1nc(Nc2ccc3c(c2)CC[C@@H](N2CCCC2)CC3)nn1-c1cc2c(nn1)-c1ccccc1CCC2 [NCGC00386665, Bemcentinib] | 112 | 19 | – | AC50 (SARS-CoV-2 live virus; [5]): 3.36 µM |
| COC(=O)C[C@H](NC(=O)[C@H](CCSC)NC(=O)[C@H](CCC(N)=O)NC(=O)[C@H](CC(=O)OC)NC(=O)OCc1ccccc1)C(=O)CF [NCGC00390337, Z-DQMD-FMK] (Cbz-D(OMe)QMD(OMe)-CH2F) | – | – | – | IC50 (SARS-CoV-2 3CL protease [2]): 0.92 µM; IC50 (SARS-CoV-2 3CL protease [3]): 0.94 µM |
| CC[C@@]1(O)C(=O)OCc2c1cc1n(c2=O)Cc2c-1nc1cc(F)c(C)c3c1c2[C@@H](N)CC3 [NCGC00390584, Exatecan] | – | 0.0031 | – | – |
| COc1ccc(C(C)(C)C)cc1CN[C@H]1C2CCN(CC2)[C@H]1C(c1ccccc1)c1ccccc1 [NCGC00390625, Maropitant] | – | – | 3.55 ± 1.12 | – |
| COc1ccc(-c2cc3c(nc2-c2ccccc2)nc(C(=O)NCCN(C)C)n3C)cn1 [NCGC00417833] | – | – | 22 | – |
| OC(c1cc(-c2ccc(Cl)cc2)nc2ccccc12)C1CCCCN1 (centres unmarked) [NCGC00482724, Vacquinol-1] | – | – | < 5 | – |
| CCCc1cc(C)[nH]c(=O)c1CNC(=O)c1cc(-c2ccc(N3CCN(C)CC3)nc2)nc2c1cnn2C(C)C [NCGC00590975, JQEZ5] | – | – | < 5 | – |
| CCN(CC)CCCNc1ccnc2cc(Cl)ccc12 [NCGC00599688, AQ-13] | – | – | 3.98 | IC50 ([1]; read-out: IC50, PP entry assay): 14.2 ± 11.7 µM |
